In the experiment the target is T1, human GPR119 (Homo sapiens, UniProt Q8TDV5).
T1 construct: expressed in transfected cells; host or cells: HEK293 (transient transfection, Lipofectamine 2000)
T1 sequence (Q8TDV5 1-335): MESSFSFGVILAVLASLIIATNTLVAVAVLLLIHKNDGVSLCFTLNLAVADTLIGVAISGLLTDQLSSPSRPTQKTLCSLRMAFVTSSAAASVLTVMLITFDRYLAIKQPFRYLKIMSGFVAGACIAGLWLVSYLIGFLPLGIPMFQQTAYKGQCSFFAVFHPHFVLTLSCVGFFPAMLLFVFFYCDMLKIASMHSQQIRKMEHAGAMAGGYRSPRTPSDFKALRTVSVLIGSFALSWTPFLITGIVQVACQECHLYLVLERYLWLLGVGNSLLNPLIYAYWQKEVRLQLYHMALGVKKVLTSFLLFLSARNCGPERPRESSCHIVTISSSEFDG
Put plainly: In vitro cyclic AMP assay (Cisbio HTRF) in HEK293 cells transfected with human GPR119. The format is cell-based. As to conditions: cAMP; for activation at 10 µM: 1 h, % Induction @ 10 μM; for EC50: Emax varies between 65 to 80%. As to the method:
A. In Vitro Cyclic AMP Assay:
cAMP measurements were done using a Cisbio dynamic 2 HTRF kit (Cisbio, Bedford, Mass.) according to the manufacturer's protocol. Briefly, HEK293 cells (0.2×10^6/well) were plated in a 24 well plate and incubated overnight at 37° C. Cells were transfected with either empty vector DNA or human GPR119 expression plasmid DNA using Lipofectamine 2000 (Invitrogen). After 24 h, transfected cells were harvested, counted and plated at 1000 cells/5 ul in a black 384 welled small volume plate. Cells were treated with desired concentrations of compounds and incubated for 60 min at room temperature. Lysis buffer containing cAMP-d2 and cryptate conjugate were added and incubated for 1 h. HRTF ratio was measured on a microplate reader (BMG Labtech., Germany) at an excitation wavelength of 337 nm and emission wavelengths of 665 and 620 nm with an integration time of 400 μsec. Data were analyzed using Graphpad Prism (Graphpad software; San Diego Calif.) for EC50 determination.
The results are as given in Table I as % Induction@ 10 μM, Table II as % Induction@ 10 μM and EC 50 in nM
In general terms: In TR-FRET formats the signal depends on donor and acceptor labels being close together.

The values that follow come from patent US9181214B2 (RHIZEN PHARMACEUTICALS SA, priority 2011, dated 2015).

As to `CC(C)(C)OC(=O)N1CCC(c2nc3cc(-c4ccc(C(N)=O)c(Cl)c4)ccc3o2)CC1` [EXAMPLE-20, Tert-butyl 4-[5-(4-carbamoyl-3-chlorophenyl)benzo[d]oxazol-2-yl]piperidine-1-carboxylate], for the setting “Table I”, the activation at 10 µM was found to be 73.9% and the EC50 (in general, the concentration giving half of the maximal effect) fell in the range of 25 to 50 nM.
With `CCc1cnc(N2CCC(c3nc4cc(-c5ccc(S(C)(=O)=O)cc5F)ccc4o3)CC2)nc1` [EXAMPLE-3, 2-[1-(5-ethylpyrimidin-2-yl)piperidin-4-yl]-5-[2-fluoro-4-(methylsulfonyl)phenyl]benzo[d]oxazole], where the note is “Table I”, the activation at 10 µM turned out to be 35.4%.
Where the note is “Table I”, `CC(C)(C)OC(=O)N1CCC(c2nc3cc(-c4ccc(C(F)(F)F)cc4)ccc3o2)CC1` [EXAMPLE-13, Tert-butyl 4-{5-[4-(trifluoromethyl)phenyl]benzo[d]oxazol-2-yl}piperidine-1-carboxylate] had an activation at 10 µM of 68.2% and an EC50 of 100 to 500 nM.
Where the note is “Table I”, `CCc1cnc(N2CCC(c3nc4cc(-c5ccc(S(C)(=O)=O)cc5F)ccc4[nH]3)CC2)nc1` [EXAMPLE-1, 2-[1-(5-Ethylpyrimidin-2-yl)piperidin-4-yl]-5-[2-fluoro-4-(methylsulfonyl)phenyl]-1H-benzo[d]imidazole] had an activation at 10 µM of 55.4%.
Under “Table I”, `CC(C)(C)OC(=O)N1CCC(c2nc3cc(-c4ccc(S(C)(=O)=O)c(F)c4)ccc3o2)CC1` [EXAMPLE-10, Tert-butyl 4-{5-[3-fluoro-4-(methylsulfonyl)phenyl]benzo[d]oxazol-2-yl}piperidine-1-carboxylate] registered an activation at 10 µM of 59.2% and an EC50 of 500 to 1000 nM.
The matching figures for `CCC(C)OC(=O)N1CCC(c2nc3cc(-c4ccc(-n5cnnn5)cc4F)ccc3o2)CC1` (stereo not shown) [EXAMPLE-24, Sec-butyl 4-{5-[2-fluoro-4-(1H-tetrazol-1-yl)phenyl]benzo[d]oxazol-2-yl}piperidine-1-carboxylate]: 67.5% and at most 25 nM.
On to `CC(C)(C)OC(=O)N1CC=C(c2ccc3[nH]c(-c4ccc(S(C)(=O)=O)cc4F)nc3c2)CC1` [EXAMPLE-56, Tert-butyl 4-{2-[2-fluoro-4-(methylsulfonyl)phenyl]-1H-benzo[d]imidazol-5-yl}-5,6-dihydropyridine-1(2H)-carboxylate], for which the activation at 10 µM (Table II) amounted to 38.5%.
Where the note is “Table I”, `CC(C)(C)OC(=O)N1CC=C(c2cc3cc(-c4ccc(C(N)=O)c(F)c4)ccc3o2)CC1` [EXAMPLE-52, Tert-butyl 4-[5-(4-carbamoyl-3-fluorophenyl)benzofuran-2-yl]-5,6-dihydropyridine-1(2H)-carboxylate] showed an activation at 10 µM of 68.4% and an EC50 of 100 to 500 nM.
Regarding `CC(C)OC(=O)N1CCC(c2ccc3sc(-c4ccc(S(C)(=O)=O)cc4F)nc3c2)CC1` [EXAMPLE-73], where the note is “Table II”, the activation at 10 µM was 46% and the EC50 was in the range of 500 to 1000 nM.
As for `CC(C)(C)OC(=O)N1CCC(c2nc3cc(-c4ccc(C#N)cc4)ccc3o2)CC1` [EXAMPLE-9, Tert-butyl 4-[5-(4-cyanophenyl)benzo[d]oxazol-2-yl]piperidine-1-carboxylate], for the setting “Table I”, the activation at 10 µM is 46.8%.
Same read-out and setting: the figure for `Fc1cc(-n2cnnn2)ccc1-c1ccc2oc(C3CCNCC3)nc2c1` [EXAMPLE-26, 5-[2-fluoro-4-(1H-tetrazol-1-yl)phenyl]-2-(piperidin-4-yl)benzo[d]oxazole] is 74%; for `CC(C)(C)OC(=O)N1CCC(c2nc3cc(-c4ccc(C#N)c(F)c4)ccc3o2)CC1` [EXAMPLE-17, Tert-butyl 4-[5-(4-cyano-3-fluorophenyl)benzo[d]oxazol-2-yl]piperidine-1-carboxylate] it is 41.5%.
Under “Table II”, `CC(C)c1noc(C2CCN(c3ccc4oc(-c5ccc(S(C)(=O)=O)cc5F)nc4c3)CC2)n1` [EXAMPLE-83, 2-[2-fluoro-4-(methylsulfonyl)phenyl]-5-[4-(3-isopropyl-1,2,4-oxadiazol-5-yl)piperidin-1-yl]benzo[d]oxazole] registered an activation at 10 µM of 57.6%.
As to `CC(C)(C)OC(=O)N1CC=C(c2ccc3sc(-c4ccc(S(C)(=O)=O)cc4F)nc3c2)CC1` [EXAMPLE-66, Tert-butyl 4-{2-[2-fluoro-4-(methylsulfonyl)phenyl]benzo[d]thiazol-5-yl}-5,6-dihydropyridine-1(2H)-carboxylate], the activation at 10 µM (Table II) was found to be 18.9%.
Same read-out and setting: the figure for `CC(C)(C)OC(=O)N1CCC(c2cc(F)c3oc(-c4ccc(S(C)(=O)=O)cc4F)nc3c2)CC1` [EXAMPLE-63, Tert-butyl 4-{7-fluoro-2-[2-fluoro-4-(methylsulfonyl)phenyl]benzo[d]oxazol-5-yl}piperidine-1-carboxylate] is 56.6%.
For the setting “Table I”, `Cn1c(C2CCN(C(=O)OC(C)(C)C)CC2)nc2cc(-c3ccc(S(C)(=O)=O)cc3F)ccc21` [EXAMPLE-5, Tert-butyl 4-{5-[2-fluoro-4-(methylsulfonyl)phenyl]-1-methyl-1H-benzo[d]imidazol-2-yl}piperidine-1-carboxylate] gave an activation at 10 µM of 41%.
Consider `CC(C)(C)OC(=O)N1CCC(c2nc3cc(-c4ccc(S(C)(=O)=O)cc4F)cc(F)c3o2)CC1` [EXAMPLE-8, Tert-butyl 4-{7-fluoro-5-[2-fluoro-4-(methylsulfonyl)phenyl]benzo[d]oxazol-2-yl}piperidine-1-carboxylate], for which, under “Table I”, the activation at 10 µM was 66.7% and the EC50 was 25 to 50 nM.
As to `CC(C)OC(=O)N1CCC(c2nc3cc(-c4ccc(C(N)=O)c(F)c4)ccc3o2)CC1` [EXAMPLE-31, Isopropyl 4-[5-(4-carbamoyl-3-fluorohenyl)benzo[d]oxazol-2-yl]piperidine-1-carboxylate], for the setting “Table I”, the activation at 10 µM stood at 80.4% and the EC50 is at most 25 nM.
For `CC(C)(C)OC(=O)N1CCC(c2ccc3nc(-c4ccc(S(C)(=O)=O)cc4F)oc3c2)CC1` [EXAMPLE-67, Tert-butyl 4-{2-[2-fluoro-4-(methylsulfonyl)phenyl]benzo[d]oxazol-6-yl}piperidine-1-carboxylate], where the note is “Table II”, the activation at 10 µM was determined as 73% and the 50% effective concentration (EC50) lay in the range of 25 to 50 nM.
Consider `CC(C)OC(=O)N1CCC(c2nc3cc(-c4ccc(S(C)(=O)=O)cc4F)ccc3o2)CC1` [EXAMPLE-7, Isopropyl 4-{5-[2-fluoro-4-(methylsulfonyl)phenyl]benzo[d]oxazol-2-yl}piperidine-1-carboxylate], for which, under “Table I”, the activation at 10 µM came out at 62.6% and the EC50 was 50 to 100 nM.
With `CC(C)Oc1ccc(-c2ccc3oc(C4CCN(C(=O)OC(C)(C)C)CC4)nc3c2)cc1F` [EXAMPLE-22, Tert-butyl 4-[5-(3-fluoro-4-isopropoxyphenyl)benzo[d]oxazol-2-yl]piperidine-1-carboxylate], the activation at 10 µM (Table I) is 64.5%.
`CC(C)C(=O)N1CCC(c2nc3cc(-c4ccc(-n5cnnn5)cc4F)ccc3o2)CC1` [EXAMPLE-32, 1-{4-[5-(2-fluoro-4-(1H-tetrazol-1-yl)phenyl)benzo[d]oxazol-2-yl]piperidin-1-yl}-2-methylpropan-1-one]: under “Table I”, the activation at 10 µM was found to be 63.9% and the EC50 fell in the range of 50 to 100 nM.
Turning to `CC(C)(C)OC(=O)N1CC=C(c2ccc3nc(-c4ccc(S(C)(=O)=O)cc4F)sc3c2)CC1` [EXAMPLE-65, Tert-butyl 4-{2-[2-fluoro-4-(methylsulfonyl)phenyl]benzo[d]thiazol-6-yl}-5,6-dihydropyridine-1(2H)-carboxylate], where the note is “Table II”, the activation at 10 µM amounted to 32.1%.
